Measured values: patent US20130035344A1, “PHARMACEUTICAL COMPOSITION FOR ORAL ADMINISTRATION” (KOWA Co., Ltd., priority 2009, published 2013)

Assays:
Type in all cases: physicochemical
[1] = Dissolution test, JP second method (paddle method), second fluid for dissolution test
Protocol: The dissolubility of the samples 1 to 6 was examined according to the second method (paddle method) of the dissolution test method according to the general test methods of the Japanese Pharmacopoeia.
103.65 mg of each of the samples 1 to 6 (53.65 mg for sample 2 only) was introduced into 900 mL of the second fluid for dissolution test according to the Japanese Pharmacopoeia, and the test was carried out under the conditions of a temperature of 37±0.5° C. and a speed of paddle rotation of 50 rpm. Thus, the concentrations of the compound a after 5, 10, 15, 30, 45 and 60 minutes were measured. The sample solution collected at each time point was filtered through a membrane filter made of PTFE (DISMIC-25HP manufactured by Toyo Roshi Kaisha, Ltd.) having a pore size of 0.45 μm, and was analyzed by a high performance liquid chromatographic method using a reversed phase column (manufactured by Nomura Chemical Co., Ltd.; Develosil ODS-HG-5). Thus, the dissolution rates were calculated.
The dissolubility of the samples 7 to 15 was examined by carrying out the test in the same manner as that described in Test Example 1, except that 153.65 mg of sample 7, 98.65 mg of sample 8, 93.65 mg of sample 9, 88.65 mg of sample 10, 78.65 mg of sample 11, 68.65 mg of sample 12, 63.65 mg of sample 13, 58.65 mg of sample 14, and 55.65 mg of sample 15 were respectively introduced into 900 mL of the second fluid for dissolution test according to the Japanese Pharmacopoeia.
The dissolubility of the tablets of Examples 8 to 10 and Comparative Examples 9 and 10 was examined by carrying out the test by the same method as that described in Test Example 1, except that one tablet each of the Examples and Comparative Examples were introduced into 900 mL of the second fluid for dissolution test according to the Japanese Pharmacopoeia.
The dissolubility of the tablets of Example 11 and Comparative Example 11 was examined by carrying out the test in the same manner as that described in Test Example 1, except that each of tablets of Example 11 and Comparative Example 11 was introduced into 900 mL of the second fluid for dissolution test according to the Japanese Pharmacopoeia.

[2] = Measurement of pH value of sample or tablet in purified water
Protocol: 103.65 mg of each of the samples 1 to 6 (53.65 mg for sample 2 only) was introduced into a beaker, and 50 mL of purified water was added thereto. While the mixture was stirred with a magnetic stirrer, the pH of the solution was measured with a glass electrode type hydrogen ion concentration meter (manufactured by Toa Electronics, Inc.; HM-50V). 50 mL of purified water was further added thereto, and then the measurement of pH was carried out in the same manner.
The pH values of the samples 7 to 15 were measured in the same manner as that used in Test Example 2. Meanwhile 153.65 mg of sample 7, 98.65 mg of sample 8, 93.65 mg of sample 9, 88.65 mg of sample 10, 78.65 mg of sample 11, 68.65 mg of sample 12, 63.65 mg of sample 13, 58.65 mg of sample 14, and 55.65 mg of sample 15 were used.
The pH values of the tablets of Examples 8 to 10 and Comparative Examples 9 and 10 were measured by the same method as that used in Test Example 2. Meanwhile, one tablet was used for each measurement.
The pH values of the tablets of Example 11 and Comparative Example 11 were measured in the same manner as that used in Test Example 2. Meanwhile, one tablet was used for each measurement.

[3] = Solubility of compound a in water
Text: However, compound a has low solubility in weakly acidic environments to alkaline environments (for example, the solubility in water is 0.05% (W/V)). Therefore, in the case of patients of achlorhydria, which is considered to develop more frequently in elderly people, there has been a concern that the dissolubility of the compound a from the pharmaceutical composition in the stomach may be insufficient, and there may be variations in the efficacy of the drug.

dissolution rate of compound a, Time (min) 0 ([1]; 0 min, 900 mL JP second fluid, 37±0.5° C., paddle 50 rpm) [%]	dissolution rate of compound a, Time (min) 5 ([1]; 5 min, 900 mL JP second fluid, 37±0.5° C., paddle 50 rpm) [%]	dissolution rate of compound a, Time (min) 10 ([1]; 10 min, 900 mL JP second fluid, 37±0.5° C., paddle 50 rpm) [%]	dissolution rate of compound a, Time (min) 15 ([1]; 15 min, 900 mL JP second fluid, 37±0.5° C., paddle 50 rpm) [%]	dissolution rate of compound a, Time (min) 30 ([1]; 30 min, 900 mL JP second fluid, 37±0.5° C., paddle 50 rpm) [%]	dissolution rate of compound a, Time (min) 45 ([1]; 45 min, 900 mL JP second fluid, 37±0.5° C., paddle 50 rpm) [%]	dissolution rate of compound a, Time (min) 60 ([1]; 60 min, 900 mL JP second fluid, 37±0.5° C., paddle 50 rpm) [%]	pH (100 mL) ([2]; after a further 50 mL purified water (100 mL))	pH (50 mL) ([2]; sample or one tablet in 50 mL purified water, stirred)	dissolubility of compound a (in words) ([1]; JP second fluid, paddle method)	solubility in water [3]	SMILES
0	0	5.7	3.1	5.2	7.1	10.2	5.07	5.02			CSc1cc(C)nc(SC)c1NC(=O)CN1CCN(CCSc2nc3ccccc3[nH]2)CC1 [Comparative Example 1, 2-[4-[2-(Benzimidazol-2-ylthio)ethyl]piperazin-1-yl]-N-[2,4-bis(methylthio)-6-methyl-3-pyridyl]acetamide]
									hardly dissolved	0.05 % (W/V)	CSc1cc(C)nc(SC)c1NC(=O)CN1CCN(CCSc2nc3ccccc3[nH]2)CC1 [compound a, 2-[4-[2-(Benzimidazol-2-ylthio)ethyl]piperazin-1-yl]-N-[2,4-bis(methylthio)-6-methyl-3-pyridyl]acetamide]
